Assays:
[1] = test system: HUVEC; assay: qPCR of lymphatic fate genes in RAF1-transduced HUVEC treated with pathway inhibitors for 24 hours; format: cell-based, Human; conditions: HUVEC with GFP or RAF1S259A adenovirus, Rapamycin 10 nM, AKT inhibitor VIII 1 μM
Procedure: ERK activation was quantified by densitometry and is represented as ratio of pERK1/2 versus total ERK1/2. Immunofluorescence staining showing higher P-ERK1/2 in β-GAL positive endothelial cells of E12.5 S259A embryos. jv, jugular vein. FIGS. 10B-10E are graphs showing HUVEC transduced with control, wild type Raf1 or RAF1S259A lentiviruses treated with DMSO, MEK inhibitor U0126 (10 μM) or PI3K inhibitor LY294002 (10 μM) for 24 hours. Sox18 (FIG. 10B), Prox1 (Figure), Vegfr3 (FIG. 10D) and Lyve1 (10E) expression was assessed by qPCR. FIGS. 10E-10H are graphs showing HUVEC transduced with GFP or RAF1S259A adenoviruses treated with DMSO, Rapamycin (10 nM), AKT inhibitor VIII (1 μM) and LY294002 (10 μM) for 24 hours. Sox18 (FIG. 10F), Prox1 (FIG. 10G) and Coup-TFII (FIG. 10H) expression assessed by qPCR. Data are Mean±SEM (n=3).*, p<0.05; **, p<0.01.
(§1) Total RNA was purified using a QiagenRNeasyPlus Mini kit. cDNA was synthesized using a Bio-Rad iScript cDNA Synthesisis kit. qPCR was performed using a Bio-Rad iQ SYBR Green Supermix on a Bio-Rad CFX96 Real Time System. For immunoblot, cells were lysed in RIPA buffer supplemented with protease and phosphatase inhibitors. Cell lysates were then separated with 4-20% gradient gel (Bio-Rad) and subjected to immunoblot.

[2] = test system: ERK; assay: ERK activation by western blot in HUVEC infected with RAF1 WT or RAF1 S259A lentivirus; format: cell-based, Human
[3] = test system: 14-3-3; assay: Immunoprecipitation of HA-RAF1 from HUVEC, western blot for 14-3-3; format: binding, Human; conditions: anti-HA immunoprecipitation
[4] = test system: HUVEC; assay: Matrigel tube formation assay; format: cell-based, Human; conditions: overexpression in HUVEC, 8 hours
[5] = test system: HUVEC; assay: Proliferation assay (cell counting); format: cell-based, Human; conditions: overexpression in HUVEC
[6] = test system: HUVEC; assay: Migration (wound healing) assay; format: cell-based, Human; conditions: under stimulation of serum, 18 hours
[7] = test system: HUVEC; assay: Apoptosis assay (serum withdrawal, Annexin V/PI flow cytometry); format: cell-based, Human; conditions: serum-starved 48 hours, vehicle, versus empty control lentivirus
[8] = test system: HUVEC; assay: qPCR of artery-vein specification genes in lentivirus infected HUVEC; format: cell-based, Human
[9] = test system: HUVEC; assay: Western blot of DLL4, cleaved NOTCH1 and ERK in RAF1 virus infected HUVEC; format: cell-based, Human
[10] = test system: Akt1-/- cells; assay: Dll4 expression in AKT+/+ and AKT-/- cells expressing RAF1 constructs; format: cell-based
From the text: FIGS. 3A to 3M show expression of Dll4 (FIG. 3A), Hey 1 (FIG. 3B), Hey 2 (FIG. 3C), Hes 1 (FIG. 3D), Coup-TFII (FIG. 3E), EphB4 (FIG. 3F), Dll1 (FIG. 3G), Ephrin B2 (FIG. 3G), Notch 1 (FIG. 3I), Notch 4 (FIG. 3J), Jagged 1 (FIG. 3K), FLK1 (FIG. 3L), Nrp1 (3N) and Flt4 (3N).

[11] = test system: HUVEC; assay: qPCR of lymphatic fate genes in virus-transduced HUVEC; format: cell-based, Human
[12] = test system: HUAEC; assay: qPCR of Prox1 in lentivirus-transduced HUAEC; format: cell-based, Human; conditions: HUAEC transduced with lentivirus
From the text: Raf1 lentiviruses were produced in 293A cells (Invitrogen) by co-transfection of pLVX-HA-Raf1 WT or S259A with lentiviral packaging plasmids pMD2.G, pRSV-REV and pMDLg/pRRE (Addgene) as described by Dull, J Virol 72:8463-8471 (1998). Control lentivirus was also made using an empty vector pLVX-IRES-puro. Ad-MEK1 CA was from Cell Biolabs, Inc. Ad-Mek1 DN was purchased from Vector Biolabs. All adenoviruses were produced, amplified and purified as described by Dull 1998; Luo, et al. Nat Protoc 2:1236-1247 (2007). For lentiviral infection, cells were incubated with lentivirus in growth medium in the presence of 8 μg/ml polybrene (Sigma) for 8 hours. For adenoviral infection, cells were incubated with adenovirus (MOI=100) in growth medium for overnight.
as §1

[13] = test system: HDLEC; assay: qPCR of lymphatic fate genes in adenovirus-transduced HDLEC; format: cell-based, Human
[14] = test system: VE-cadherin-tTA/RAF1S259A double transgenic embryos; assay: Endothelial-specific RAF1S259A transgenic mice (Noonan syndrome mouse model); format: in vivo; conditions: primary EC purified from E12.5 S259A embryos versus control littermates
From the text: Human wild type Raf1 and RAF1S259A plasmids were gifts of Dr. Guri Tzivion (Wayne State University). To generate RAF1S259A transgenic mice, hRAF1S259A was cloned to NotI+PstI sites of pBI-G Tet-off vector (Clontech). TRE-RAF1S259A transgenic mouse line was then generated at the Yale Animal Genomics Services center. VE-cadherin-tT A mice (Sun, et al. Proc Natl Acad Sci USA 102:128-133 (2005)) were from W. Sessa lab (Yale). Time-mating was setup by intercross of male TRE-RAF1 S259A mice with VE-cadherin-tTA female mice. For paraffin and frozen sections, embryos were fixed in 4% paraformaldehyde for overnight at 4° C.
Primary mouse endothelial cells were isolated from E12.5 embryos using a protocol similar to that described by Ren, et al. J Clin Invest 120:1217-1228 (2010). Briefly, E12.5 embryos were harvested, minced finely with scissors, and then digested in 25 ml collagenase 0.2% (w/v) at 37° C. for 20 minutes. The crude cell preparation was pelleted and resuspended in DPBS. The cell suspension was incubated with CD31-coated beads (Invitrogen) at room temperature for 10 minutes with rotation. Using a magnetic separator, the bead-bound cells were recovered, washed with DMEM-20% FBS. The cells were then used for gene expression analysis by qPCR.

[15] = test system: HDLEC; assay: Sox18 expression in serum starved HDLEC stimulated with VEGF-C; format: cell-based, Human; conditions: 100 ng/ml VEGF-C
Procedure: FIGS. 11A-11J are graphs showing excessive ERK activation is the basis of lymphatic abnormalities in Noonan syndrome. HUVEC (FIGS. 11A-11D) and HDLEC (FIGS. 11E-11H) were transduced with adenovirus expressing lacZ, cytosolic localized constitutive active ERK (ME) or nuclear localized constitutive active ERK (LA). Sox18 (FIGS. 11A and 11E), Prox1 (FIGS. 11B and 11F), Vegfr3 (FIGS. 11C and 11G) and Lyve1 (FIGS. 11D and 11H) expression were assessed by qPCR. Data are Mean±SEM (n=3). FIG. 11I is a graph of serum starved HDLEC stimulated with 100 ng/ml VEGF-C for an indicated time in the presence of […] (10 μM) or an equal volume of DMSO. Sox18 expression was assessed by qPCR. Data are Mean±SEM (n=3). FIG. 11J is a graph of lymphatic vessel diameter calculated by whole mount staining of skin vasculature of E14.5 embryos treated with MEK inhibitor U0126 or DMSO. Statistical significance was determined by two-tailed t-test (Control, n=5 embryos; S259A, n=3 embryos).
as §1

[16] = serum-starved HUVEC, 50 ng/ml VEGF-A164
[17] = lentivirus infected HUVEC, qPCR
[18] = adenovirus MOI 0, 5, 10, 50 for 48 hours, HUVEC
[19] = HUVEC transduced with the named construct
[20] = HDLEC transduced with the named construct

Molecule: O=c1[nH]c2ccccc2n1C1CCN(Cc2ccc(-c3nc4cc5[nH]cnc5cc4nc3-c3ccccc3)cc2)CC1 [AKT inhibitor VIII]
- Coup-TFII expression [1]: significantly inhibited
- Prox1 expression [1]: significantly inhibited
- Sox18 expression [1]: slightly inducing

Molecule: RAF1 S259A: RAF1 Ser259 to Ala259 mutant, not inhibited by AKT; expressed from lentivirus, adenovirus or endothelial transgene
- ERK activation ([2]; overexpression in HUVEC by lentivirus): constitutive activation
- Akt signaling [2, 16]: remains normal
- Erk activation [2, 16]: constitutive activation
- co-immunoprecipitation with 14-3-3 [3]: did not
- tube formation (tube length) [4]: significantly improved
- cell proliferation [5]: significantly inhibited
- cell migration [6]: significantly promoted
- cell survival [7]: significantly higher survival
- Egr1 expression ([8]; Raf1SA introduction): activated expression
- Ets1 expression ([8]; Raf1SA introduction): activated expression
- Sox7 expression ([8]; Raf1SA introduction): not changed
- Sox18 expression ([8]; Raf1SA introduction): activated expression
- Coup-TFII (venous marker) gene expression [8, 17]: no changes
- Dll1 gene expression [8, 17]: not affected
- Dll4 gene expression [8, 17]: dramatically induced
- EphB4 (venous fate gene) expression [8, 17]: no changes
- Ephrin B2 gene expression [8, 17]: dramatically induced
- Flk1 gene expression [8, 17]: induced
- Flt4 gene expression [8, 17]: induced
- Hes1 gene expression [8, 17]: dramatically induced
- Hey1 gene expression [8, 17]: dramatically induced
- Hey2 gene expression [8, 17]: dramatically induced
- Jagged1 gene expression [8, 17]: dramatically induced
- Notch4 gene expression [8, 17]: dramatically induced
- neuropilin1 (Nrp1) gene expression [8, 17]: dramatically induced
- Coup-TFII (venous marker) gene expression ([8]; lentivirus infected HUVEC, qPCR, listed as RAF1S259A): slightly inhibiting
- NOTCH1 activation (cleaved NOTCH1) ([9]; HUVEC): activated
- DLL4 protein [9, 18]: dose-dependent and parallel increase
- ERK activity [9, 18]: dose-dependent and parallel increase
- Dll4 protein ([9]; lentivirus overexpression in HUVEC): dramatically increased
- DLL4 expression [10]: strongly induced
- Sox7 expression ([11]; HUVEC transduced with lentivirus): unchanged
- Lyve1 expression [11, 19]: Increased expression
- Prox1 expression [11, 19]: upregulated
- Sox17 expression [11, 19]: significant increase
- Sox18 expression [11, 19]: significant increase
- Vegfr3 expression [11, 19]: Increased expression
- Coup-TFII levels ([11]; in vitro or in vivo): no significant effect
- Prox1 expression [12]: upregulated
- Prox1 expression ([13]; HDLEC transduced with adenovirus): not
- Lyve1 expression [13, 20]: Increased expression
- Sox17 expression [13, 20]: significant increase
- Sox18 expression [13, 20]: significant increase
- Vegfr3 expression [13, 20]: Increased expression
- Sox18 levels [14]: significantly higher

B1: VEGF-C: growth factor from R&D, the key VEGF in lymphatic EC (protein, UniProt P49767 112-227, looked up)
Vascular endothelial growth …: AHYNTEILKSIDNEWRKTQCMPREVCIDVGKEFGVATNTFFKPPCVSVYRCGGCCNSEGLQCMNTSTSYLSKTLFEITVPLSQGPKPVTISFANHTSCRCMSKLDVYRQVHSIIRR
- Sox18 expression [15]: induced

— patent publication US20140120106A1, “Stimulation of Arterial Collateral Growth and Lymphogenesis” (YALE UNIVERSITY, priority 2011, published 2014)
